Assay results reported in patent US9273058B2 (BRISTOL-MYERS SQUIBB COMPANY, priority 2013, dated 2016).
Like-named read-outs stand apart in the source and are kept apart here.

Assays:
[1] = molecular target: CK1δ (Homo sapiens, UniProt P48730); assay: CK1δ kinase assay (Caliper LabChip electrophoretic separation of fluoresceinated peptide substrate and product); type: biochemical; settings: 200 pM CK1δ, 50 μM ATP, 1.5 μM peptide, 22 hours at room temperature
In short: (§1)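 Kinase reactions ran 22 h at room temperature, were stopped with EDTA, and phosphorylated product was separated electrophoretically from unphosphorylated fluoresceinated peptide. Compounds were tested at eleven concentrations from 10 mM DMSO stocks. IC50 by non-linear regression.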

[2] = molecular target: CK1ε (Homo sapiens, UniProt P49674); assay: CK1ε kinase assay (Caliper LabChip electrophoretic separation of fluoresceinated peptide substrate and product); type: biochemical; settings: 200 pM CK1ε, 50 μM ATP, 1.5 μM peptide, 22 hours at room temperature
Sequence of CK1ε (P49674 whole entry): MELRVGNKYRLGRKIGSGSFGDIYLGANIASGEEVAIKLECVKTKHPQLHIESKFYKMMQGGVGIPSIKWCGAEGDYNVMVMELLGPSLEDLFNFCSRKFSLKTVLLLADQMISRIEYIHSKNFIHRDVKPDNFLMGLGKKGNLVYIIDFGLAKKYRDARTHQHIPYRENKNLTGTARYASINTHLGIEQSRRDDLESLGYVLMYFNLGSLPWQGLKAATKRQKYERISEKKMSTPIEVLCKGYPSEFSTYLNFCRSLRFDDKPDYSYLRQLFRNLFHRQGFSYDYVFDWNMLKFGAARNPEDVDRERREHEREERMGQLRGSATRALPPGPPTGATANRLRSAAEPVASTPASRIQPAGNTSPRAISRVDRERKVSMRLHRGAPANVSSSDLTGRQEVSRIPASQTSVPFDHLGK
In short: as §1

Sequence of CK1δ (P48730 whole entry): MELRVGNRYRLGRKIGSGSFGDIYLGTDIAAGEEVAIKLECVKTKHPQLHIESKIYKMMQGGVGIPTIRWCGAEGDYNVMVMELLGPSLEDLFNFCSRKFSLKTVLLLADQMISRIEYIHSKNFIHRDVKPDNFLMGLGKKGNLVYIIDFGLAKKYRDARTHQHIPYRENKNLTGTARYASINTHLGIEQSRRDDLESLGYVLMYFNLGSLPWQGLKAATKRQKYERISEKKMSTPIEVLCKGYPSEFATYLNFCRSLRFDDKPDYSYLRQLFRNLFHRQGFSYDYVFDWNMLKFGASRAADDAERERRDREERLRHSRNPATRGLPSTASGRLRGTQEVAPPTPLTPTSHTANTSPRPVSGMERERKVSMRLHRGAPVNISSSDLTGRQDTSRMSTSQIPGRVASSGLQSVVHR

| Compound | IC50 ([1]; read-out: CK1δ IC50 range) [nM] | IC50 ([2]; read-out: CK1ε IC50 range) [nM] | IC50 ([1]; read-out: CK1δ) [nM] | IC50 ([2]; read-out: CK1ε) [nM] |
| --- | --- | --- | --- | --- |
| CC(C)(C)NC(=O)N1Cc2c(C(N)=O)c(-c3ccc(F)c(Cl)c3)nn2[C@H]2COC[C@H]21 [Compound 352, (5aS,8aR)—N^5-(tert-Butyl)-2-(3-chloro-4-fluorophenyl)-5a,6,8,8a-tetrahydrofuro[3,4-e]pyrazolo[1,5-a]pyrazine-3,5(4H)-dicarboxamide] | 10 to 100 | 10 to 100 | 18.1 | 19.8 |
| NC(=O)c1c(-c2ccc(F)c(Cl)c2)nn2c1CN(C(=O)NC1CC(F)(F)C1)[C@@H]1COC[C@@H]12 [Compound 353, (5aS,8aR)-2-(3-Chloro-4-fluorophenyl)-N^5-(3,3-difluorocyclobutyl)-5a,6,8,8a-tetrahydrofuro[3,4-e]pyrazolo [1,5-c]pyrazine-3,5(4H)-dicarboxamide] | 0.01 to 10 | 0.01 to 10 | – | – |
| CC1(NC(=O)N2Cc3c(C(N)=O)c(-c4ccc(F)c(Cl)c4)nn3[C@H]3COC[C@H]32)CC(F)(F)C1 [Compound 354, (5aS,8aR)-2-(3-Chloro-4-fluorophenyl)-N^5-(3,3-difluoro-1-methylcyclobutyl)-5a,6,8,8a-tetrahydrofuro[3,4-e]pyrazolo [1,5-a]pyrazine-3,5(4H)-dicarboxamide] | 0.01 to 10 | 0.01 to 10 | – | – |
| CC(C)(C)NC(=O)N1Cc2c(C(N)=O)c(-c3cccc(Cl)c3)nn2C(CF)C1 (centres unmarked) [Compound A5, N^5-(tert-butyl)-2-(3-chlorophenyl)-7-(fluoromethyl)-6,7-dihydropyrazolo[1,5-a] pyrazine-3,5(4H)-dicarboxamide] | 0.01 to 10 | 0.01 to 10 | – | – |
| CC1(NC(=O)N2Cc3c(C(N)=O)c(-c4ccc(F)c(Cl)c4)nn3C(CF)C2)CC(F)(F)C1 (centres unmarked) [Compound A9, 2-(3-Chloro-4-fluorophenyl)-N^5-(3,3-difluoro-1-methylcyclobutyl)-7-(fluoromethyl)-6,7-dihydropyrazolo[1,5-a]pyrazine-3,5(4H)-dicarboxamide] | 0.01 to 10 | 0.01 to 10 | – | – |
| CC(C)(C)NC(=O)N1Cc2c(C(N)=O)c(-c3ccc(F)c(Cl)c3)nn2C(C(C)(C)O)C1 (centres unmarked) [Compound A17, N^5-(tert-Butyl)-2-(3-chloro-4-fluorophenyl)-7-(2-hydroxypropan-2-yl)-6,7-dihydropyrazolo[1,5-a]pyrazine-3,5(4H)-dicarboxamide] | 10 to 100 | 10 to 100 | – | – |
| CC(C)(C)NC(=O)N1Cc2c(C(N)=O)c(-c3ccc(F)c(Cl)c3)nn2C(C(C)(C)O)C1 (centres unmarked) [Compound A18, N^5-(tert-Butyl)-2-(3-chloro-4-fluorophenyl)-7-(2-hydroxypropan-2-yl)-6,7-dihydropyrazolo[1,5-a]pyrazine-3,5(4H)-dicarboxamide] | 0.01 to 10 | 0.01 to 10 | – | – |
| CC(C)(C)NC(=O)N1Cc2c(C(N)=O)c(-c3ccc(F)c(Cl)c3)nn2C(COC(F)F)C1 (centres unmarked) [Compound A21, N^5-(tert-Butyl)-2-(3-chloro-4-fluorophenyl)-7-((difluoromethoxy)methyl)-6,7-dihydropyrazolo[1,5-a]pyrazine-3,5(4H)-dicarboxamide] | 10 to 100 | 0.01 to 10 | – | – |
| CC(C)(C)NC(=O)N1Cc2c(C(N)=O)c(-c3ccc(F)c(Cl)c3)nn2C(COC(F)F)C1 (centres unmarked) [Compound A22, N^5-(tert-Butyl)-2-(3-chloro-4-fluorophenyl)-7-((difluoromethoxy)methyl)-6,7-dihydropyrazolo[1,5-a]pyrazine-3,5(4H)-dicarboxamide] | 0.01 to 10 | 0.01 to 10 | – | – |
| CC(C)(C)NC(=O)N1Cc2c(C(N)=O)c(-c3ccc(F)c(Cl)c3)nn2C(C(=O)NC2CC2)C1 (centres unmarked) [Compound A23, N^5-(tert-Butyl)-2-(3-chloro-4-fluorophenyl)-N^7-cyclopropyl-6,7-dihydropyrazolo[1,5-a]pyrazine-3,5,7(4H)-tricarboxamide] | 100 to 2000 | 10 to 100 | – | – |
| CC(C)(C)NC(=O)N1Cc2c(C(N)=O)c(-c3ccc(F)c(Cl)c3)nn2C(C(=O)NC2CC2)C1 (centres unmarked) [Compound A24, N^5-(tert-Butyl)-2-(3-chloro-4-fluorophenyl)-N^7-cyclopropyl-6,7-dihydropyrazolo[1,5-a]pyrazine-3,5,7(4H)-tricarboxamide] | 100 to 2000 | 10 to 100 | – | – |
| CC1(NC(=O)N2Cc3c(C(N)=O)c(-c4ccc(Cl)c(Cl)c4)nn3C(CF)C2)CC(F)(F)C1 (centres unmarked) [Compound A27, 2-(3,4-Dichlorophenyl)-N^5-(3,3-difluoro-1-methylcyclobutyl)-7-(fluoromethyl)-6,7-dihydropyrazolo[1,5-a]pyrazine-3,5(4H)-dicarboxamide] | 0.01 to 10 | 0.01 to 10 | – | – |
| CC1(NC(=O)N2Cc3c(C(N)=O)c(-c4ccc(Cl)c(Cl)c4)nn3C(CF)C2)CC(F)(F)C1 (centres unmarked) [Compound A28, 2-(3,4-Dichlorophenyl)-N^5-(3,3-difluoro-1-methylcyclobutyl)-7-(fluoromethyl)-6,7-dihydropyrazolo[1,5-a]pyrazine-3,5(4H)-dicarboxamide] | 0.01 to 10 | 0.01 to 10 | – | – |
| NC(=O)c1c(-c2ccc(Cl)c(Cl)c2)nn2c1CN(C(=O)NC1CC(F)(F)C1)C[C@H]2CF [Compound A29, (S)-2-(3,4-dichlorophenyl)-N^5-(3,3-difluorocyclobutyl)-7-(fluoromethyl)-6,7-dihydropyrazolo[1,5-a] pyrazine-3,5(4H)-dicarboxamide] | 0.01 to 10 | 0.01 to 10 | – | – |
| NC(=O)c1c(-c2ccc(Cl)c(Cl)c2)nn2c1CN(C(=O)NC1CC(F)(F)C1)C[C@@H]2CF [Compound A30, (R)-2-(3,4-dichlorophenyl)-N^5-(3,3-difluorocyclobutyl)-7-(fluoromethyl)-6,7-dihydropyrazolo[1,5-a] pyrazine-3,5(4H)-dicarboxamide] | 0.01 to 10 | 0.01 to 10 | 0.3 | 0.1 |

Other lines, results leading:

| IC50 ([1]; read-out: CK1δ IC50 range) [nM] | IC50 ([2]; read-out: CK1ε IC50 range) [nM] | IC50 ([1]; read-out: CK1δ) [nM] | IC50 ([2]; read-out: CK1ε) [nM] | Compound |
| --- | --- | --- | --- | --- |
| 0.01 to 10 | 0.01 to 10 | – | – | CC(C)(O)[C@H](F)CNC(=O)N1CCn2nc(-c3ccc(Cl)c(Cl)c3)c(C(N)=O)c2C1 [Compound 338, (R)-2-(3,4-Dichlorophenyl)-N^5-(2-fluoro-3-hydroxy-3-methylbutyl)-6,7-dihydropyrazolo[1,5-a]pyrazine-3,5(4H)-dicarboxamide] |
| 0.01 to 10 | 0.01 to 10 | – | – | NC(=O)c1c(-c2ccc(F)c(Cl)c2)nn2c1CN(C(=O)NC1CN(CC(F)(F)F)C1)CC2 [Compound 339, 2-(3-Chloro-4-fluorophenyl)-N^5-(1-(2,2,2-trifluoroethyl)azetidin-3-yl)-6,7-dihydropyrazolo[1,5-a]pyrazine-3,5(4H)-dicarboxamide] |
| 0.01 to 10 | 0.01 to 10 | – | – | CC1(NC(=O)N2Cc3c(C(N)=O)c(-c4ccc(F)c(Cl)c4)nn3C(CF)C2)CC(F)(F)C1 (centres unmarked) [Compound A10, 2-(3-Chloro-4-fluorophenyl)-N^5-(3,3-difluoro-1-methylcyclobutyl)-7-(fluoromethyl)-6,7-dihydropyrazolo[1,5-a]pyrazine-3,5(4H)-dicarboxamide] |
| 0.01 to 10 | 0.01 to 10 | – | – | NC(=O)c1c(-c2ccc(F)c(Cl)c2)nn2c1CN(C(=O)NC1CCCC1)CC2C(F)F (centres unmarked) [Compound A11, 2-(3-Chloro-4-fluorophenyl)-N^5-cyclopentyl-7-(difluoromethyl)-6,7-dihydropyrazolo[1,5-a]pyrazine-3,5(4H)-dicarboxamide] |
| 10 to 100 | 0.01 to 10 | – | – | NC(=O)c1c(-c2ccc(F)c(Cl)c2)nn2c1CN(C(=O)NC1CCCC1)CC2C(F)F (centres unmarked) [Compound A12, 2-(3-Chloro-4-fluorophenyl)-N^5-cyclopentyl-7-(difluoromethyl)-6,7-dihydropyrazolo[1,5-a]pyrazine-3,5(4H)-dicarboxamide] |
| 0.01 to 10 | 0.01 to 10 | – | – | NC(=O)c1c(-c2ccc(F)c(Cl)c2)nn2c1CN(C(=O)NC1CCC(F)(F)CC1)C[C@H]2C(F)F [Compound A13, (S)-2-(3-Chloro-4-fluorophenyl)-N^5-(4,4-difluorocyclohexyl)-7-(difluoromethyl)-6,7-dihydropyrazolo[1,5-a] pyrazine-3,5(4H)-dicarboxamide] |
| 0.01 to 10 | 0.01 to 10 | – | – | NC(=O)c1c(-c2ccc(F)c(Cl)c2)nn2c1CN(C(=O)NC1CCC(F)(F)CC1)C[C@@H]2C(F)F [Compound A14, (R)-2-(3-Chloro-4-fluorophenyl)-N^5-(4,4-difluorocyclohexyl)-7-(difluoromethyl)-6,7-dihydropyrazolo[1,5-a] pyrazine-3,5(4H)-dicarboxamide] |
| 0.01 to 10 | 0.01 to 10 | – | – | CC(C)(C)NC(=O)N1Cc2c(C(N)=O)c(-c3ccc(F)c(Cl)c3)nn2C(CN2CCOCC2)C1 (centres unmarked) [Compound A15, N^5-(tert-Butyl)-2-(3-chloro-4-fluorophenyl)-7-(morpholinomethyl)-6,7-dihydropyrazolo[1,5-a]pyrazine-3,5(4H)-dicarboxamide] |
| 10 to 100 | 0.01 to 10 | – | – | CC(C)(C)NC(=O)N1Cc2c(C(N)=O)c(-c3ccc(F)c(Cl)c3)nn2C(CN2CCOCC2)C1 (centres unmarked) [Compound A16, N^5-(tert-Butyl)-2-(3-chloro-4-fluorophenyl)-7-(morpholinomethyl)-6,7-dihydropyrazolo[1,5-a]pyrazine-3,5(4H)-dicarboxamide] |
| 10 to 100 | 10 to 100 | – | – | CC(C)(O)[C@@H]1CN(C(=O)NC2CC(F)(F)C2)Cc2c(C(N)=O)c(-c3ccc(F)c(Cl)c3)nn21 [Compound A19, (S)-2-(3-Chloro-4-fluorophenyl)-N^5-(3,3 - difluorocyclobutyl)-7-(2-hydroxypropan-2-yl)-6,7-dihydropyrazolo[1,5-a] pyrazine-3,5(4H)-dicarboxamide] |
| 0.01 to 10 | 0.01 to 10 | – | – | CC(C)(O)[C@H]1CN(C(=O)NC2CC(F)(F)C2)Cc2c(C(N)=O)c(-c3ccc(F)c(Cl)c3)nn21 [Compound A20, (R)-2-(3-Chloro-4-fluorophenyl)-N^5-(3,3 difluorocyclobutyl)-7-(2-hydroxypropan-2-yl)-6,7-dihydropyrazolo[1,5-a] pyrazine-3,5(4H)-dicarboxamide] |
